Assay results as given in US20230183219A1, “CONDENSED SUBSTITUTED HYDROPYRROLES AS ANTAGONISTS OF THE MUSCARINIC ACETYLCHOLINE RECEPTOR M4” (Vanderbilt University, priority 2020, published 2023).

Target: T1, Human M4 (Homo sapiens, UniProt P08173)
T1 construct: Human or rat M4 cDNA, along with the chimeric G protein Gqi5, were transfected into Chinese hamster ovary (CHO-K1) cells; expressed in transfected cells; host or cells: CHO-K1 (Chinese hamster ovary, ATCC), stably co-expressing Gqi5
T1 sequence (P08173 1-479): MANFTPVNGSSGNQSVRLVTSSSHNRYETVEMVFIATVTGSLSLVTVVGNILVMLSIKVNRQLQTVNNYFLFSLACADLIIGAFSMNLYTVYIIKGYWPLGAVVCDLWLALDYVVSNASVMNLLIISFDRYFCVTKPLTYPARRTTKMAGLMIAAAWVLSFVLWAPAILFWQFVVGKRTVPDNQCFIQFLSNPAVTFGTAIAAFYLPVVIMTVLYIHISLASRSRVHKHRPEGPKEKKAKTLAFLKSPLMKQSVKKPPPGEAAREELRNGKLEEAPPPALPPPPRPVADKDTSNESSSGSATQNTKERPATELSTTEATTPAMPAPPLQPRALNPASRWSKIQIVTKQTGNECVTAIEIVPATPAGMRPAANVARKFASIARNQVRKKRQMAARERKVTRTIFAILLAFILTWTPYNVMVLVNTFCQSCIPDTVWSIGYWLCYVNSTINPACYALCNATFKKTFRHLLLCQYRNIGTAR
Experiment: mAChR M4 cell-based functional assay (calcium flux, decrease of EC80 acetylcholine response)
Settings: for remaining activity at 30 µM: % ACh maximum at 30 μM, read-out: Human M4 Emin; for IC50: M4/Gqi5/CHO-K1 cells, decrease of response to EC80 acetylcholine
How it was run: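 CHO-K1 cells stably co-expressing M4 and chimeric Gqi5, loaded with Fluo-4 AM; calcium flux read on FDSS. Compound added at 2 s, EC20 acetylcholine at 143 s, EC80 acetylcholine at 268 s. IC50 from concentration-dependent decrease of the EC80 response, four-parameter logistic fit; 10-point 1:3 titrations.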

| SMILES | remaining activity at 30 µM [%] | IC50 [nM] |
| --- | --- | --- |
| CCOc1ccc(F)cc1-c1cc(C(F)(F)F)c(N[C@H]2C[C@@H]3CN(CC4CCOCC4)C[C@@H]3C2)nn1 [Example 73, (3aR,5s,6aS)-N-(6-(2-ethoxy-5-fluorophenyl)-4-(trifluoromethyl)pyridazin-3-yl)-2-((tetrahydro-2H-pyran-4-yl)methyl)octahydro-cyclopenta[c]pyrrol-5-amine] | 3 | 201 |
| Fc1cccc(-c2cc(C(F)(F)F)c(N[C@H]3C[C@@H]4CN(Cc5ccccn5)C[C@@H]4C3)nn2)c1 [Example 105, (3aR,5s,6aS)-N-(6-(3-fluorophenyl)-4-(trifluoro-methyl)pyridazin-3-yl)-2-(pyridin-2-ylmethyl)octahydro-cyclopenta[c]pyrrol-5-amine] | 2 | 467 |
| Cc1ccc(-c2cc(C(F)(F)F)c(N[C@H]3C[C@@H]4CN(CC5CCOCC5)C[C@@H]4C3)nn2)c(F)c1 [Example 79, (3aR,5s,6aS)-N-(6-(2-fluoro-4-methylphenyl)-4-(trifluoromethyl)pyridazin-3-yl)-2-((tetrahydro-2H-pyran-4-yl)methyl)octahydro-cyclopenta[c]pyrrol-5-amine] | 3 | 349 |
| Cc1c(F)cc(F)cc1-c1cc(C(F)(F)F)c(N[C@H]2C[C@@H]3CN(CC4CCOCC4)C[C@@H]3C2)nn1 [Example 46, (3aR,5s,6aS)-N-(6-(3,5-difluoro-2-methylphenyl)-4-(trifluoromethyl)pyridazin-3-yl)-2-((tetrahydro-2H-pyran-4-yl)methyl)octahydro-cyclopenta[c]pyrrol-5-amine] | 4 | 384 |
| O=C1Cc2cc(-c3cc(C(F)(F)F)c(N[C@H]4C[C@@H]5CN(CC6CCOCC6)C[C@@H]5C4)nn3)ccc2N1 [Example 63, 5-(6-(((3aR,5s,6aS)-2-((tetrahydro-2H-pyran-4-yl)methyl)octahydro-cyclopenta[c]pyrrol-5-yl)amino)-5-(trifluoro-methyl)pyridazin-3-yl)indolin-2-one] | 3 | 95.6 |

Molecules with a lower IC50, results first:

| remaining activity at 30 µM [%] | IC50 [nM] | SMILES |
| --- | --- | --- |
| 2 | 14.3 | C[C@H]1CCCN(c2cc(C(F)(F)F)c(N[C@H]3C[C@@H]4CN(CC5CCOCC5)C[C@@H]4C3)nn2)C1 [Example 137, (3aR,5s,6aS)-N-(6-((S)-3-methylpiperidin-1-yl)-4-(trifluoro-methyl)pyridazin-3-yl)-2-((tetrahydro-2H-pyran-4-yl)methyl)octahydro-cyclopenta[c]pyrrol-5-amine] |
| 2 | 52.8 | Cc1ccc(C)c(-c2cc(C(F)(F)F)c(N[C@H]3C[C@@H]4CN(CC5CCOCC5)C[C@@H]4C3)nn2)c1 [Example 44, (3aR,5s,6aS)-N-(6-(2,5-dimethylphenyl)-4-(trifluoromethyl)pyridazin-3-yl)-2-((tetrahydro-2H-pyran-4-yl)methyl)octahydro-cyclopenta[c]pyrrol-5-amine] |
| 2 | 54.7 | [2H]C([2H])(C1CCOCC1)N1C[C@H]2C[C@H](Nc3nnc(-c4cc(F)ccc4C(F)(F)F)cc3C(F)(F)F)C[C@H]2C1 [Example 99, (3aR,5s,6aS)-N-(6-(5-fluoro-2-(trifluoromethyl)phenyl)-4-(trifluoromethyl)pyridazin-3-yl)-2-((tetrahydro-2H-pyran-4-yl)methyl-d2)octahydro-cyclopenta[c]pyrrol-5-amine] |
| 3 | 13.2 | [2H][C@@]1(Nc2nnc(-c3ccc4nn(C)cc4c3)cc2C(F)(F)F)C[C@H]2CN(CC3CCOCC3)C[C@H]2C1 [Example 128, (3aR,5s,6aS)-N-(6-(2-methyl-2H-indazol-5-yl)-4-(trifluoro-methyl)pyridazin-3-yl)-2-((tetrahydro-2H-pyran-4-yl)methyl)octahydro-cyclopenta[c]pyrrol-5-d-5-amine] |
